# Experimental data as given in paper PMC3131588, “Effects of Onion (Allium cepa L.) Extract Administration on Intestinal α-Glucosidases Activities and Spikes in Postprandial Blood Glucose Levels in SD Rats Model” (International Journal of Molecular Sciences, 2011).
# Tests used:
# rat intestinal maltase = target: T1, rat intestinal maltase; experiment: maltose hydrolysis, liberated glucose by glucose oxidase method; assay type: biochemical; details: maltose 0.4 mg/mL, 0.1 M phosphate pH 7.0, 37 °C, 30 min; crude rat intestinal enzyme; quercetin bought as dihydrate
# T1 construct: gene Mgam; native enzymes in crude supernatant of rat intestinal acetone powder (Sigma-Aldrich); maltase activity not resolved to one gene product
# Source text: maltose hydrolysis, liberated glucose by glucose oxidase method on rat intestinal maltase
# [1] = target: T2, rat intestinal α-glucosidase; experiment: p-nitrophenyl-α-D-glucopyranoside hydrolysis, absorbance at […] nm; assay type: biochemical; details: 5 mM p-nitrophenyl-α-D-glucopyranoside stock (50 μL), 0.1 M phosphate pH 6.9, 25 °C; crude rat intestinal enzyme; quercetin bought as dihydrate
# T2 construct: gene Mgam; native enzymes in crude supernatant of rat intestinal acetone powder (Sigma-Aldrich), EC 3.2.1.20; not resolved to one gene product
smiles,measurement,setting,value
"O=c1c(O)c(-c2ccc(O)c(O)c2)oc2cc(O)cc(O)c12 [quercetin, 3,3′,4′,5,7-Pentahydroxyflavone dihydrate]",IC50,rat intestinal maltase,0.07 mg/mL
same,IC50,[1],0.15 mg/mL
